Seven compounds from patent US6399561B1, “Methods and compositions for bleaching a dye in solution” (Novozymes A/S, priority 1998, dated 2002) can be followed below.

Holding throughout (format): biochemical
For experiment [1], the system named is Recombinant Coprinus cinereus laccase (rCcL). The experiment can be described thus: Bleaching of methyl orange using rCcL and NOH-type enhancing agents (initial bleaching rate). To be noted: rCcL solution diluted 1:200, 0.2 mM mediator, 30° C., large negative numbers = best performance. How it is done: (§1) Britton-Robinson buffer is composed of:
(§2) Methyl orange (Merck, Germany)
(§3) Reactions were started by addition of enzyme. Absorbance at 464 nm was followed for 3 minutes (readings every 5 seconds) on a Cobas Fara at 30° C. Initial bleaching rates were determined from the first linear part of the progress curves.
(§4) The N—OH compounds listed above were tested as laccase mediators in bleaching of methyl orange with three recombinant laccases (rPpL, rMtL and rCcL) at various pH values. Large negative numbers represent the best performance.

For experiment [2], the system named is Recombinant Myceliophthora thermophila laccase (rMtL). The experiment can be described thus: Bleaching of methyl orange using rMtL and NOH-type enhancing agents (initial bleaching rate). To be noted: rMtL solution diluted 1:300, 0.2 mM mediator, 30° C., large negative numbers = best performance. Here is the method:
as §1, §2, §3, §4

The target of experiment [3] is T1, Polyporus pinsitus laccase (Trametes villosa, UniProt Q99044).
T1 construct: made in house
T1 sequence (Q99044 22-520): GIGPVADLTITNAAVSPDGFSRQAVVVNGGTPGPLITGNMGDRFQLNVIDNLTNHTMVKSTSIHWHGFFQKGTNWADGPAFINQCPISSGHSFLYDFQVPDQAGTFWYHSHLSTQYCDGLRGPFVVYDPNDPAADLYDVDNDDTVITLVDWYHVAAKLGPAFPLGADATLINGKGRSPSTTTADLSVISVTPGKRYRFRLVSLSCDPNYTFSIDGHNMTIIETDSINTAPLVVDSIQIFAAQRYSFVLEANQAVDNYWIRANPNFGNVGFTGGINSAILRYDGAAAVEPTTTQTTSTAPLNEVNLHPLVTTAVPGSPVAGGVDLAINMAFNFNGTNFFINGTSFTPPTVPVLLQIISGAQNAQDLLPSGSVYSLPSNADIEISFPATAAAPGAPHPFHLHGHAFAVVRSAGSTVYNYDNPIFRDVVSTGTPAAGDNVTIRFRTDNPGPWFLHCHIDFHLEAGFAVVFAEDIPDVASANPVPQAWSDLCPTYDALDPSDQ
In words: Bleaching of methyl orange using rPpL and NOH-type enhancing agents (initial bleaching rate). To be noted: rPpL solution diluted 1:200, 0.2 mM mediator, 30° C., large negative numbers = best performance. How it is done:
as §1, §2, §3, §4

In the case of `On1nnc2ccccc21` [1-hydroxybenzotriazole, 1-Hydroxybenzotriazole], the “Initial changes per minute in A464 nm of methyl orange using rCcL” value (“Initial changes per minute … using rCcL” for short) is listed as −0.016 per minute in experiment [1] (pH 4); −0.018 per minute in experiment [1] (pH 5); −0.019 per minute in experiment [1] (pH 6); −0.017 per minute in experiment [1] (pH 7); −0.005 per minute in experiment [1] (pH 8). Moreover, the “Initial changes per minute in A464 nm of methyl orange using rMtL” value (“Initial changes per minute … using rMtL” below) in experiment [2] (pH 4) is recorded as −0.050 per minute; in experiment [2] (pH 5), −0.019 per minute; in experiment [2] (pH 6), −0.007 per minute; in experiment [2] (pH 7) it was −0.002 per minute. For the same compound, the “Initial changes per minute in A464 nm of methyl orange using rPpL” value (shortened to “Initial changes per minute … using rPpL”) is −0.206 per minute in experiment [3] (pH 4), −0.077 per minute in experiment [3] (pH 5), −0.017 per minute in experiment [3] (pH 6) and −0.005 per minute in experiment [3] (pH 7).

Take `O=c1c2ccccc2nnn1O` [3-hydroxy-1,2,3-benzotriazin-4(3H)-one, 3-Hydroxy-1,2,3-benzotriazin-4(3H)-one]: the “Initial changes per minute … using rCcL” value in experiment [1] (pH 4) is 0.004 per minute; in experiment [1] (pH 5), −0.004 per minute; in experiment [1] (pH 6), −0.011 per minute; in experiment [1] (pH 7), −0.008 per minute; in experiment [1] (pH 8) it was −0.002 per minute. Moreover, the “Initial changes per minute … using rMtL” value in experiment [2] (pH 4) was −0.016 per minute; in experiment [2] (pH 5), −0.011 per minute; in experiment [2] (pH 6), −0.001 per minute; in experiment [2] (pH 7), 0.002 per minute. The “Initial changes per minute … using rPpL” value is −0.020 per minute in experiment [3] (pH 4), −0.020 per minute in experiment [3] (pH 5), −0.008 per minute in experiment [3] (pH 6) and 0.000 per minute in experiment [3] (pH 7).

In the case of `O=c1[nH]c(=O)[nH]c(=O)[nH]1` [Cyanuric acid], the “Initial changes per minute … using rCcL” value in experiment [1] (pH 4) is −0.005 per minute; in experiment [1] (pH 5) it was −0.008 per minute; in experiment [1] (pH 6), −0.012 per minute; in experiment [1] (pH 7), −0.012 per minute; in experiment [1] (pH 8), −0.005 per minute. The “Initial changes per minute … using rMtL” value in experiment [2] (pH 4) was −0.013 per minute; in experiment [2] (pH 5) it was 0.010 per minute; in experiment [2] (pH 6), −0.002 per minute; in experiment [2] (pH 7) it was 0.000 per minute. Also, the “Initial changes per minute … using rPpL” value in experiment [3] (pH 4) is listed as −0.037 per minute; in experiment [3] (pH 5) it was −0.022 per minute; in experiment [3] (pH 6), −0.011 per minute; in experiment [3] (pH 7), −0.002 per minute.

Consider `O=C(c1ccccc1)N(O)c1ccccc1` [N-benzoyl-N-phenylhydroxylamine, N-Benzoyl-N-phenylhydroxylamine], for which the “Initial changes per minute … using rCcL” value in experiment [1] (pH 4) is listed as −0.163 per minute; in experiment [1] (pH 5) it was −0.247 per minute; in experiment [1] (pH 6), −0.529 per minute; in experiment [1] (pH 7), −0.592 per minute; in experiment [1] (pH 8), −0.124 per minute. Also, the “Initial changes per minute … using rMtL” value in experiment [2] (pH 4) is −0.269 per minute; in experiment [2] (pH 5) it was −0.296 per minute; in experiment [2] (pH 6), −0.082 per minute; in experiment [2] (pH 7) it was −0.012 per minute. Further, the “Initial changes per minute … using rPpL” value is recorded as −0.732 per minute in experiment [3] (pH 4), −1.402 per minute in experiment [3] (pH 5), −0.420 per minute in experiment [3] (pH 6) and −0.012 per minute in experiment [3] (pH 7).

Regarding `O=C1c2ccccc2C(=O)N1O` [N-hydroxyphthalimide], the “Initial changes per minute … using rCcL” value is recorded as −0.006 per minute in experiment [1] (pH 4); −0.007 per minute in experiment [1] (pH 5); −0.014 per minute in experiment [1] (pH 6); −0.011 per minute in experiment [1] (pH 7); −0.004 per minute in experiment [1] (pH 8). In addition, the “Initial changes per minute … using rMtL” value in experiment [2] (pH 4) is −0.019 per minute; in experiment [2] (pH 5) it was −0.016 per minute; in experiment [2] (pH 6), −0.005 per minute; in experiment [2] (pH 7) it was 0.000 per minute. In addition, the “Initial changes per minute … using rPpL” value was −0.050 per minute in experiment [3] (pH 4), −0.035 per minute in experiment [3] (pH 5), −0.011 per minute in experiment [3] (pH 6) and −0.001 per minute in experiment [3] (pH 7).

In the case of `[O-][n+]1ccc2ccccc2c1` [Iso-quinoline-N-oxide], the “Initial changes per minute … using rCcL” value in experiment [1] (pH 4) is −0.002 per minute; in experiment [1] (pH 5), −0.005 per minute; in experiment [1] (pH 6), −0.008 per minute; in experiment [1] (pH 7), −0.010 per minute; in experiment [1] (pH 8), −0.004 per minute. The “Initial changes per minute … using rMtL” value is −0.017 per minute in experiment [2] (pH 4), −0.010 per minute in experiment [2] (pH 5), −0.004 per minute in experiment [2] (pH 6) and 0.000 per minute in experiment [2] (pH 7). The “Initial changes per minute … using rPpL” value in experiment [3] (pH 4) is recorded as −0.074 per minute; in experiment [3] (pH 5), −0.037 per minute; in experiment [3] (pH 6), −0.014 per minute; in experiment [3] (pH 7) it was −0.002 per minute.

As to `CCOc1ccc(N=[N+]([O-])c2ccc(OCC)cc2)cc1` [p,p′-azoxydiphenetole, p,p′-Azoxydiphenetole], the “Initial changes per minute … using rCcL” value in experiment [1] (pH 4) came to 0.116 per minute; in experiment [1] (pH 5), 0.196 per minute; in experiment [1] (pH 6) it was 0.002 per minute; in experiment [1] (pH 7), 0.008 per minute; in experiment [1] (pH 8), 0.019 per minute. In addition, the “Initial changes per minute … using rMtL” value in experiment [2] (pH 4) worked out at 0.019 per minute; in experiment [2] (pH 5), 0.086 per minute; in experiment [2] (pH 6) it was 0.012 per minute; in experiment [2] (pH 7) it was 0.020 per minute. Further, the “Initial changes per minute … using rPpL” value in experiment [3] (pH 4) was 0.121 per minute; in experiment [3] (pH 5), 0.013 per minute; in experiment [3] (pH 6), 0.017 per minute; in experiment [3] (pH 7), 0.018 per minute.
